In patent publication US20240010606A1, “FUMARATE DERIVATIVES AND THEIR MEDICAL USE” (Sitryx Therapeutics Limited, priority 2020, published 2024):

How the values were obtained:
IL-1β = test: THP-1 AlphaLISA IL-1β cytokine assay; format: cell-based; settings: Homo sapiens; differentiated THP-1 cells; Table 2, compounds of formula (II)
Procedure, shortened: (§1)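 THP-1 cells differentiated 72 h with PMA, pre-incubated 30 min with compounds, stimulated 24 h with LPS, then 1 h with nigericin, all at 37 °C. Supernatant cytokine measured by AlphaLISA; % inhibition normalised to ±LPS controls and IC50 taken from concentration-response curves.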

IL-6 = test: THP-1 AlphaLISA IL-6 cytokine assay; format: cell-based; settings: Homo sapiens, THP-1, differentiated THP-1 cells; Table 2, compounds of formula (II)
Procedure, shortened: as §1

NRF2 = NRF2 activation assay (DiscoverX PathHunter NRF2 translocation kit, U2OS cells); format: cell-based
Procedure, shortened: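 PathHunter U2OS cells, grown 24 h at 37 °C/5% CO2, treated 6 h with compound; NRF2 nuclear translocation read as enzyme-fragment-complementation chemiluminescence. Activation normalised to dimethyl fumarate high and untreated low controls; EC50 from concentration-response curve.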

[1] = Hepatocyte stability assay, human; format: in vitro ADME; settings: cryopreserved hepatocytes, 10 μM compound, Table 6, read-out: T½
Procedure, shortened: (§2)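 Cryopreserved hepatocytes (viability >70%) at 0.5×10^6 cells/mL in Leibovitz buffer, preincubated 10 min at 37 °C, then compound at 10 μM (0.1% DMSO) in duplicate; buffer-only incubations as control. Samples at 0-60 min quenched in acetonitrile, analysed by LC-MS/MS; half-life and CLint (μL min^−1 10^−6 cells) from ln % remaining versus time.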

hepatocytes [2] = test: Hepatocyte stability assay, human; format: in vitro ADME; settings: 10 μM compound, Table 6
Procedure, shortened: as §2

[3] = Hepatocyte stability assay, mouse; format: in vitro ADME; settings: mouse, cryopreserved hepatocytes, 10 μM compound, Table 6, read-out: T½
Procedure, shortened: as §2

hepatocytes [4] = test: Hepatocyte stability assay, mouse; format: in vitro ADME; settings: 10 μM compound, Table 6
Procedure, shortened: as §2

[5] = +GSH, Table 4, compounds of formula (II)
[6] = −GSH, Table 4, compounds of formula (II)

Row | SMILES | IC50 (IL-1β) [µM] | IC50 (IL-6) [µM] | EC50 (NRF2; [5]) [µM] | NRF2 activation Emax (NRF2; [5]) | EC50 (NRF2; +GSH, from repeated experiments, Table 4) [µM] | EC50 (NRF2; [6]) [µM] | NRF2 activation Emax (NRF2; [6]) | half-life at 10 μM [1] [h] | CIint (hepatocytes [2]) | half-life at 10 μM [3] [h] | CIint (hepatocytes [4])
1 | CC(C)(OC(=O)/C=C/C(=O)O)c1ccc(C(F)(F)F)cc1 [Intermediate 21, (E)-4-oxo-4-((2-(4-(trifluoromethyl)phenyl)propan-2-yl)oxy)but-2-enoic acid] | 6 to 30 | > 100 | < 23 | ++ (++ means >87-114%) | 23 to 48.4 | < 23 | +++ (+++ means >114-150%) | > 1.67 | ++++ (++++ means 5-15) | > 1.67 | ++++ (++++ means 5-15)
2 | O=C(O)/C=C/C(=O)OC1(c2cc(Cl)c(F)c(Cl)c2)CCC1 [Intermediate 25, (E)-4-(1-(3,5-dichloro-4-fluorophenyl)cyclobutoxy)-4-oxobut-2-enoic acid] | 6 to 30 | < 6 | < 23 | ++ (++ means >87-114%) |  | < 23 | ++++ (++++ means >150%) | > 1.67 | +++ (+++ means >15-30) | 0.5 to 1.67 | ++ (++ means >30-110)
3 | O=C(O)/C=C/C(=O)OC1(c2ccc(C(F)(F)F)c(Cl)c2)CCC1 [Intermediate 26, (E)-4-(1-(3-chloro-4-(trifluoromethyl)phenyl)cyclobutoxy)-4-oxobut-2-enoic acid] | < 6 | < 6 | < 23 | ++ (++ means >87-114%) |  | < 23 | +++ (+++ means >114-150%) | 0.5 to 1.67 | +++ (+++ means >15-30) | 0.5 to 1.67 | ++ (++ means >30-110)
4 | O=C(O)/C=C/C(=O)OC1(c2ccc(OC(F)(F)F)cc2)CCC1 [Intermediate 30, (E)-4-oxo-4-(1-(4-(trifluoromethoxy)phenyl)cyclobutoxy)but-2-enoic acid] | < 6 | 6 to 30 | 23 to 48.4 | ++ (++ means >87-114%) |  | < 23 | +++ (+++ means >114-150%) | > 1.67 | ++++ (++++ means 5-15) | 0.5 to 1.67 | +++ (+++ means >15-30)
5 | O=C(O)/C=C/C(=O)OC1(c2ccc(C(F)(F)F)cc2)CC1 [Intermediate 38, (E)-4-oxo-4-(1-(4-(trifluoromethyl)phenyl)cyclopropoxy)but-2-enoic acid] | < 6 | 6 to 30 | < 23 | + (+ means >50-<87%) |  | < 23 | ++++ (++++ means >150%) | 0.5 to 1.67 | +++ (+++ means >15-30) | 0.0833 to 0.483 | ++ (++ means >30-110)
